Legend:
rgRSV224 virus = test: microbe, parasite or virus in culture; type: cell-based, respiratory syncytial virus (RSV); conditions: for EC50: human respiratory syncytial virus, HeLa, 72 h, read-out: RSV HELA pEC50 (converted)

Method for HeLa cells: Black 384-well clear-bottom microtiter plates (Corning, Amsterdam, The Netherlands) were filled via acoustic drop ejection using the echo liquid handler (Labcyte, Sunnyvale, Calif.). 200 nL of compound stock solutions (100% DMSO) were transferred to the assay plates. 9 serial 4-fold dilutions of compound were made, creating per quadrant the same compound concentration. The assay was initiated by adding 10 μL of culture medium to each well (RPMI medium without phenol red, 10% FBS-heat inactivated, 0.04% gentamycin (50 mg/mL). All addition steps are done by using a multidrop dispenser (Thermo Scientific, Erembodegem, Belgium). Next, rgRSV224 virus (MOI=1) diluted in culture medium was added to the plates. rgRSV224 virus is an engineered virus that includes an additional GFP gene (Hallak L K, Spillmann D, Collins P L, Peeples M E. Glycosaminoglycan sulfation requirements for respiratory syncytial virus infection; Journal of virology (2000), 74(22), 10508-13) and was in-licensed from the NIH (Bethesda, Md., USA). Finally, 20 μL of a HeLa cell suspension (3,000 cells/well) were plated. Medium, virus- and mock-infected controls were included in each test. The wells contain 0.05% DMSO per volume. Cells were incubated at 37° C. in a 5% CO2 atmosphere. Three days post-virus exposure, viral replication was quantified by measuring GFP expression in the cells by an in house developed MSM laser microscope (Tibotec, Beerse, Belgium). The EC50 was defined as the 50% inhibitory concentration for GFP expression. In parallel, compounds were incubated for three days in a set of white 384-well microtiter plates (Corning) and the cytotoxicity of compounds in HeLa cells was determined by measuring the ATP content of the cells using the ATPlite kit (Perkin Elmer, Zaventem, Belgium) according to the manufacturer's instructions. The CC50 was defined as the 50% concentration for cytotoxicity.

SMILES	EC50 (rgRSV224 virus) [nM]	TOX HELA pCC50 (HeLa cells)	RSV HELA pEC50 (rgRSV224 virus; rgRSV224 virus MOI=1, HeLa cells, GFP expression three days post-virus exposure)
Cc1nc2cc(C3CCCCN3c3ncnc4cccc(C)c34)nn2c2c1CCCC2 (racemic) [Compound P36, 5-methyl-2-(1-(5-methylquinazolin-4-yl)piperidin-2-yl)-6,7,8,9-tetrahydropyrazolo[1,5-a]quinazoline]	977	4.6	–
Cc1cccc2ncnc(N3CCCCC3c3cc4nc5c(c(N6CCOCC6)n4n3)CCCCC5)c12 (stereo not drawn) [Compound P24, 4-(2-(1-(5-methylquinazolin-4-yl)piperidin-2-yl)-6,7,8,9-tetrahydro-5H-cyclohepta[d]pyrazolo[1,5-a]pyrimidin-10-yl)morpholine]	9550	4.8	–
Cc1cccc2ncnc(N3CCCCC3c3cc4nc5c(cn4n3)CCCC5)c12 (stereo not drawn) [Compound P18, 2-(1-(5-methylquinazolin-4-yl)piperidin-2-yl)-5,6,7,8-tetrahydropyrazolo-[5,1-b]quinazoline]	3890	4.3	–
Cc1ccc2ncnc(N3CCCCC3c3cc4nc5c(c(N6CCOCC6)n4n3)CCCC5)c2c1 (stereo not drawn) [Compound P4, 4-(2-(1-(6-methylquinazolin-4-yl)piperidin-2-yl)-5,6,7,8-tetrahydropyrazolo[5,1-b]quinazolin-9-yl)morpholine]	166	4.7	–
Cc1cccc2ncnc(N3CCCC[C@@H]3c3cc4nc5c(c(C)n4n3)CCCC5)c12 [Compound P37]	–	4.4	5.11
Cc1ccc(NS(C)(=O)=O)c(C(=O)N2CCCC[C@H]2c2cc3nc4c(c(N5CCOCC5)n3n2)CCCC4)c1 [Compound P3, (S)—N-(4-methyl-2-(2-(9-morpholino-5,6,7,8-tetrahydropyrazolo[5,1-b]quinazolin-2-yl)piperidine-1-carbonyl)-phenyl)methanesulfonamide]	0.562	4.5	–
Cc1ccc(NS(C)(=O)=O)c(C(=O)N2CCCC[C@@H]2c2cc3nc4c(c(N5CCOCC5)n3n2)CCCC4)c1 [Compound P2, (R)—N-(4-methyl-2-(2-(9-morpholino-5,6,7,8-tetrahydropyrazolo[5,1-b]quinazolin-2-yl)-piperidine-1-carbonyl)phenyl)methanesulfonamide]	13.2	4.3	–
Cc1cccc2ncnc(N3CCCCC3c3cc4nc5c(c(N(C)C)n4n3)CCN5C)c12 (stereo not drawn) [Compound P42, N,N,5-trimethyl-2-(1-(5-methylquinazolin-4-yl)piperidin-2-yl)-6,7-dihydro-5H-pyrazolo[1,5-a]pyrrolo[2,3-d]pyrimidin-8-amine]	16.6	4.6	–
Cc1ccc(NS(C)(=O)=O)c(C(=O)N2CCCCC2c2cc3nc(N(C)C)c4c(n3n2)N(C)CCC4)c1 (stereo not drawn) [Compound P27, N-(2-(2-(5-(dimethylamino)-9-methyl-6,7,8,9-tetrahydropyrazolo-[1,5-a]pyrido[3,2-e]pyrimidin-2-yl)piperidine-1-carbonyl)-4-methylphenyl)methane-sulfonamide]	2.04	4.3	–
Cc1ccc(NS(C)(=O)=O)c(C(=O)N2CCCCC2c2cc3nc4c(c(N5CCOCC5)n3n2)COCC4)c1 (stereo not drawn) [Compound P34, N-(4-methyl-2-(2-(9-morpholino-6,8-dihydro-5H-pyrano[4,3-d]pyrazolo-[1,5-a]pyrimidin-2-yl)piperidine-1-carbonyl)phenyl)methanesulfonamide]	20.9	4.6	–
Cc1ccc(NS(C)(=O)=O)c(C(=O)N2CCCCC2c2cc3nc4c(c(N(C)C)n3n2)CCCC4)c1 (stereo not drawn) [Compound P15, N-(2-(2-(9-(dimethylamino)-5,6,7,8-tetrahydropyrazolo[5,1-b]quinazolin-2-yl)piperidine-1-carbonyl)-4-methylphenyl)methanesulfonamide]	1.78	4.6	–
Cc1cccc2nc(NS(C)(=O)=O)nc(N3CCCCC3c3cc4nc5c(c(N6CCOCC6)n4n3)CCC5)c12 (stereo not drawn) [Compound P41, N-(5-methyl-4-(2-(8-morpholino-6,7-dihydro-5H-cyclopenta[d]pyrazolo-[1,5-a]pyrimidin-2-yl)piperidin-1-yl)quinazolin-2-yl)methanesulfonamide]	229	4	–
Cc1ccc(NS(C)(=O)=O)c(C(=O)N2CCCCC2c2cc3nc4c(c(O)n3n2)CCCC4)c1 (stereo not drawn) [Compound P14, N-(2-(2-(9-hydroxy-5,6,7,8-tetrahydropyrazolo[5,1-b]quinazolin-2-yl)-piperidine-1-carbonyl)-4-methylphenyl)methanesulfonamide]	40.7	4.3	–
FC(F)(F)c1cccc2ncnc(N3CCCCC3c3cc4nc5c(c(N6CCOCC6)n4n3)CCCC5)c12 (stereo not drawn) [Compound P11, 4-(2-(1-(5-(trifluoromethyl)quinazolin-4-yl)piperidin-2-yl)-5,6,7,8-tetrahydropyrazolo[5,1-b]quinazolin-9-yl)morpholine]	676	4.7	–
Cc1ccc2nc(Cl)nc(N3CCCCC3c3cc4nc5c(c(N6CCOCC6)n4n3)CCCC5)c2c1 (stereo not drawn) [Compound P8, 4-(2-(1-(2-chloro-6-methylquinazolin-4-yl)piperidin-2-yl)-5,6,7,8-tetrahydropyrazolo[5,1-b]quinazolin-9-yl)morpholine]	162	4.5	–
Cc1ccc2nc(NS(C)(=O)=O)nc(N3CCCCC3c3cc4nc5c(c(N6CCOCC6)n4n3)CCCC5)c2c1 (stereo not drawn) [Compound P9, N-(6-methyl-4-(2-(9-morpholino-5,6,7,8-tetrahydropyrazolo[5,1-b]-quinazolin-2-yl)piperidin-1-yl)quinazolin-2-yl)methanesulfonamide]	13.5	4.3	–
CCOc1nc(N2CCCCC2c2cc3nc4c(c(N5CCOCC5)n3n2)COCC4)c2c(C)cccc2n1 (stereo not drawn) [Compound P33, 2-(1-(2-ethoxy-5-methylquinazolin-4-yl)piperidin-2-yl)-9-morpholino-6,8-dihydro-5H-pyrano[4,3-d]pyrazolo[1,5-a]pyrimidine]	813	4.4	–
COc1cccc2ncnc(N3CCCCC3c3cc4nc5c(c(N6CCOCC6)n4n3)CCCC5)c12 (stereo not drawn) [Compound P12, 4-(2-(1-(5-methoxyquinazolin-4-yl)piperidin-2-yl)-5,6,7,8-tetrahydropyrazolo[5,1-b]quinazolin-9-yl)morpholine]	75.9	4.4	–
Cc1cccc2nc(NS(C)(=O)=O)nc(N3CCCCC3c3cc4nc5c(c(N6CCOCC6)n4n3)CCCC5)c12 (stereo not drawn) [Compound P7, N-(5-methyl-4-(2-(9-morpholino-5,6,7,8-tetrahydropyrazolo[5,1-b]-quinazolin-2-yl)piperidin-1-yl)quinazolin-2-yl)methanesulfonamide]	6.03	4.2	–
Cc1cccc2nc(Cl)nc(N3CCCCC3c3cc4nc5c(c(N6CCOCC6)n4n3)CCCC5)c12 (stereo not drawn) [Compound P6, 4-(2-(1-(2-chloro-5-methylquinazolin-4-yl)piperidin-2-yl)-5,6,7,8-tetrahydropyrazolo[5,1-b]quinazolin-9-yl)morpholine]	1200	4.8	–
Cc1ccc(NS(C)(=O)=O)c(C(=O)N2CCCCC2c2cc3nc4c(cn3n2)CCCC4)c1 (stereo not drawn) [Compound P17, N-(4-methyl-2-(2-(5,6,7,8-tetrahydropyrazolo[5,1-b]quinazolin-2-yl)-piperidine-1-carbonyl)phenyl)methanesulfonamide]	97.7	4.6	–
